Source: patent US8470380B2, “Polyphenol extraction process” (Coressence Limited, priority 2006, dated 2013)

Legend:
[1] = (−)-Epicatechin isomerisation test (heating of an epicatechin test solution, HPLC); assay type: physicochemical; conditions: for Epicatechin / Epicatechin % remain: 0.688 mg/ml epicatechin solution, nitrogen-flushed sealed vial; for Other % of start / Other: calculated from 100 − (epicatechin + catechin); for Other: unit assumed; for Catechin / Catechin % of start: formed from 0.688 mg/ml epicatechin
Protocol: In order to test the possibility that epicatechin was isomerising to catechin at higher temperatures, a test solution of 0.688 mg/ml epicatechin was produced and treated as follows: 950 μl of epicatechin was transferred to an auto sampler vial, which was flushed with nitrogen and sealed. The vial was then placed in an oven at a given temperature, for a set time period. The vial was then cooled, the seal removed and 50 μl of internal standard added before analysis. Tests were carried out at 50, 75, 100 and 125° C. for 15 and 30 minutes. Tests were not carried out at 150° C. as the vials are not capable of withstanding the pressure that would be generated.

[2] = Comparison of ethanol extraction with methanol (solubility of epicatechin); assay type: physicochemical; conditions: ethanol compared with methanol; implied by extraction data of Table 11
Protocol: A comparative extract using 1 g of apple powder and 10 ml methanol gave a figure of 4663 mg/Kg. In order to test if the low recovery figure above was due to low solubility of epicatechin in ethanol a series of tests were performed using 10, 20 and 30:1 w/w.

Epicatechin ([1]; 50° C. 15 min): 0.643 mg/mL
Epicatechin % remain ([1]; 50° C. 15 min): 93.53%
Epicatechin ([1]; 50° C. 30 min): 0.601 mg/mL
Epicatechin % remain ([1]; 50° C. 30 min): 87.40%
Epicatechin ([1]; 75° C. 15 min): 0.550 mg/mL
Epicatechin % remain ([1]; 75° C. 15 min): 79.92%
Epicatechin ([1]; 75° C. 30 min): 0.441 mg/mL
Epicatechin % remain ([1]; 75° C. 30 min): 64.07%
Epicatechin ([1]; 100° C. 15 min): 0.254 mg/mL
Epicatechin % remain ([1]; 100° C. 15 min): 36.97%
Epicatechin ([1]; 100° C. 30 min): 0.164 mg/mL
Epicatechin % remain ([1]; 100° C. 30 min): 23.88%
Epicatechin ([1]; 125° C. 15 min): 0.156 mg/mL
Epicatechin % remain ([1]; 125° C. 15 min): 22.71%
Epicatechin ([1]; 125° C. 30 min): 0.139 mg/mL
Epicatechin % remain ([1]; 125° C. 30 min): 20.27%
Other % of start ([1]; 50° C. 15 min): 5.40%
Other ([1]; 50° C. 15 min): 0.037 mg/mL
Other % of start ([1]; 50° C. 30 min): 10.79%
Other ([1]; 50° C. 30 min): 0.074 mg/mL
Other % of start ([1]; 75° C. 15 min): 10.59%
Other ([1]; 75° C. 15 min): 0.073 mg/mL
Other % of start ([1]; 75° C. 30 min): 19.65%
Other ([1]; 75° C. 30 min): 0.135 mg/mL
Other % of start ([1]; 100° C. 15 min): 16.36%
Other ([1]; 100° C. 15 min): 0.113 mg/mL
Other % of start ([1]; 100° C. 30 min): 26.07%
Other ([1]; 100° C. 30 min): 0.179 mg/mL
Other % of start ([1]; 125° C. 15 min): 27.94%
Other ([1]; 125° C. 15 min): 0.192 mg/mL
Other % of start ([1]; 125° C. 30 min): 36.13%
Other ([1]; 125° C. 30 min): 0.249 mg/mL
Catechin ([1]; 50° C. 15 min): 0.007 mg/mL
Catechin % of start ([1]; 50° C. 15 min): 1.07%
Catechin ([1]; 50° C. 30 min): 0.012 mg/mL
Catechin % of start ([1]; 50° C. 30 min): 1.81%
Catechin ([1]; 75° C. 15 min): 0.065 mg/mL
Catechin % of start ([1]; 75° C. 15 min): 9.49%
Catechin ([1]; 75° C. 30 min): 0.112 mg/mL
Catechin % of start ([1]; 75° C. 30 min): 16.28%
Catechin ([1]; 100° C. 15 min): 0.321 mg/mL
Catechin % of start ([1]; 100° C. 15 min): 46.68%
Catechin ([1]; 100° C. 30 min): 0.344 mg/mL
Catechin % of start ([1]; 100° C. 30 min): 50.05%
Catechin ([1]; 125° C. 15 min): 0.340 mg/mL
Catechin % of start ([1]; 125° C. 15 min): 49.36%
Catechin ([1]; 125° C. 30 min): 0.300 mg/mL
Catechin % of start ([1]; 125° C. 30 min): 43.60%
isomerisation of (−)-epicatechin ([1]; temperatures above 100° C.): rapid isomerisation
Substance: epicatechin
solubility of epicatechin [2]: lower solubility in ethanol than in methanol
